The record followed here is patent US12202821B2, “Herbicidal compounds” (SYNGENTA CROP PROTECTION AG, priority 2019, dated 2025).

Molecules are shown by their SMILES.

Holding throughout (assay type): in vivo
The test system of assay [1] is AMAPA. Nature of the assay: Pre-emergence biological efficacy. The settings on record: 312 h, evaluated after 13 days, read-out: damage to plant (100=total damage to plant; 0=no damage to plant), AMAPA. The protocol:
(§1) Pre-Emergence Biological Efficacy
(§2) Seeds of weeds and/or crops were sown in standard soil in pots. After cultivation for one day under controlled conditions in a glasshouse (at 24/16° C., day/night; 14 hours light; 65% humidity), the plants were sprayed with an aqueous spray solution derived from the formulation of the technical active ingredient in acetone/water (50:50) solution containing 0.5% Tween 20 (polyoxyethylene sorbitan monolaurate, CAS RN 9005-64-5) to give the desired final dose of test compound.
(§3) The test plants were then grown under controlled conditions in the glasshouse (at 24/16° C., day/night; 14 hours light; 65% humidity) and watered twice daily. After 13 days the test was evaluated (100=total damage to plant; 0=no damage to plant).

Assay [2] deals with ECHCG. Nature of the assay: Pre-emergence biological efficacy. The settings on record: Echinochloa crus-galli, 312 h, evaluated after 13 days, read-out: damage to plant (100=total damage to plant; 0=no damage to plant), ECHCG. As for the experimental part: as §1, §2, §3
Assay [3] has as its system EPHHL. Nature of the assay: Pre-emergence biological efficacy. The conditions noted are these: 312 h, evaluated after 13 days, read-out: damage to plant (100=total damage to plant; 0=no damage to plant), EPHHL. As for the experimental part: as §1, §2, §3
Assay [4] relates to IPOHE. Nature of the assay: Pre-emergence biological efficacy. The conditions noted are these: Ipomoea hederacea, 312 h, evaluated after 13 days, read-out: damage to plant (100=total damage to plant; 0=no damage to plant), IPOHE. As for the experimental part:
as §1, §2, §3

The test system of assay [5] is LOLPE. Nature of the assay: Pre-emergence biological efficacy. The conditions noted are these: 312 h, evaluated after 13 days, read-out: damage to plant (100=total damage to plant; 0=no damage to plant), LOLPE. The protocol: as §1, §2, §3
The subject of assay [6] is SETFA. Nature of the assay: Pre-emergence biological efficacy. The conditions noted are these: Setaria faberi, 312 h, evaluated after 13 days, read-out: damage to plant (100=total damage to plant; 0=no damage to plant), SETFA. As for the experimental part: as §1, §2, §3
Assay [7] relates to AMAPA. Nature of the assay: Post-emergence biological efficacy. The settings on record: 312 h, evaluated after 13 days, read-out: damage to plant (100=total damage to plant; 0=no damage to plant), AMAPA. The protocol: (§4) Post-Emergence Biological Efficacy
(§5) Seeds of weeds and/or crops were sown in standard soil in pots. After cultivation for 8 days under controlled conditions in a glasshouse (at 24/16° C., day/night; 14 hours light; 65% humidity), the plants were sprayed with an aqueous spray solution derived from the formulation of the technical active ingredient in acetone/water (50:50) solution containing 0.5% Tween 20 (polyoxyethylene sorbitan monolaurate, CAS RN 9005-64-5) to give the desired final dose of test compound.
(§6) The test plants were then grown on under controlled conditions in a glasshouse (at 24/16° C., day/night; 14 hours light; 65% humidity) and watered twice daily. After 13 days the test was evaluated (100=total damage to plant; 0=no damage to plant).

The next assay deals with CHEAL. Nature of the assay: Post-emergence biological efficacy. The settings on record: Chenopodium album, 312 h, evaluated after 13 days, read-out: damage to plant (100=total damage to plant; 0=no damage to plant), CHEAL. As for the experimental part:
as §4, §5, §6

In a further assay the test system is DIGSA. Nature of the assay: Post-emergence biological efficacy. The settings on record: Digitaria sanguinalis, 312 h, evaluated after 13 days, read-out: damage to plant (100=total damage to plant; 0=no damage to plant), DIGSA. The protocol:
as §4, §5, §6

Assay [8] relates to ECHCG. Nature of the assay: Post-emergence biological efficacy. The conditions noted are these: Echinochloa crus-galli, 312 h, evaluated after 13 days, read-out: damage to plant (100=total damage to plant; 0=no damage to plant), ECHCG. As for the experimental part:
as §4, §5, §6

Another assay deals with ELEIN. Nature of the assay: Post-emergence biological efficacy. The settings on record: 312 h, evaluated after 13 days, read-out: damage to plant (100=total damage to plant; 0=no damage to plant), ELEIN. As for the experimental part: as §4, §5, §6
The subject of assay [9] is EPHHL. Nature of the assay: Post-emergence biological efficacy. The settings on record: 312 h, evaluated after 13 days, read-out: damage to plant (100=total damage to plant; 0=no damage to plant), EPHHL. As for the experimental part: as §4, §5, §6
For assay [10], the system named is IPOHE. Nature of the assay: Post-emergence biological efficacy. The conditions noted are these: Ipomoea hederacea, 312 h, evaluated after 13 days, read-out: damage to plant (100=total damage to plant; 0=no damage to plant), IPOHE. The protocol: as §4, §5, §6
The test system of assay [11] is LOLPE. Nature of the assay: Post-emergence biological efficacy. The conditions noted are these: evaluated after 13 days; for pest or weed control at 250 g/ha: 312 h, read-out: damage to plant (100=total damage to plant; 0=no damage to plant), LOLPE. The protocol: as §4, §5, §6
Assay [12] has as its system SETFA. Nature of the assay: Post-emergence biological efficacy. The conditions noted are these: Setaria faberi, 312 h, evaluated after 13 days, read-out: damage to plant (100=total damage to plant; 0=no damage to plant), SETFA. As for the experimental part:
as §4, §5, §6

On to `CC(=NO)C1(C)CC(c2cc(-n3c(=O)n(C)c(=S)n(C)c3=O)c(F)cc2Cl)NO1` (stereo not drawn) [Compound 296, 3-[4-Chloro-2-fluoro-5-[5-[N-hydroxy-C-methyl-carbonimidoyl]-5-methyl-isoxazolidin-3-yl]phenyl]-1,5-dimethyl-6-thioxo-1,3,5-triazinane-2,4-dione], for which the pest or weed control at 250 g/ha stood at 100% in the assay with AMAPA [1]; 80% with ECHCG [2]; 90% with EPHHL [3]; 90% with IPOHE [4]; 80% in the assay on LOLPE [5]; 100% in the assay with SETFA [6]. Besides, the pest or weed control at 250 g/ha with AMAPA [7] turned out to be 100%; in the assay with CHEAL it was 100%; in the assay on DIGSA it was 70%; in the assay with ECHCG [8], 30%; in the assay on ELEIN, 90%; with EPHHL [9] it was 80%. For the same molecule, the pest or weed control at 250 g/ha in the assay on IPOHE [10] is 90%; in the assay with LOLPE [11], 70%; with SETFA [12], 80%.
With `Cn1c(=S)n(C)c(=O)n(-c2cc(C3=NOC(C)(C(=O)O)C3)c(Cl)cc2F)c1=O` (stereo not drawn) [Compound 45, 3-[2-chloro-5-(3,5-dimethyl-2,6-dioxo-4-thioxo-1,3,5-triazinan-1-yl)-4-fluoro-phenyl]-5-methyl-4H-isoxazole-5-carboxylic acid], the pest or weed control at 250 g/ha in the assay with AMAPA [1], in the assay with ECHCG [2], in the assay with EPHHL [3], in the assay with IPOHE [4], in the assay on LOLPE [5] and in the assay on SETFA [6] was 100% each time. Also, the pest or weed control at 250 g/ha in the assay with AMAPA [7], in the assay on CHEAL, with DIGSA, in the assay with ECHCG [8], in the assay with ELEIN and in the assay with EPHHL [9] was 100% in each case. The pest or weed control at 250 g/ha in the assay on IPOHE [10], with LOLPE [11] and in the assay on SETFA [12] was 100% throughout.
Regarding `Cn1c(=S)n(C)c(=O)n(-c2cc(C3=NOC(C)(C(N)=O)C3)c(Cl)cc2F)c1=O` (stereo not drawn) [Compound 308, 3-[2-chloro-5-(3,5-dimethyl-2,6-dioxo-4-thioxo-1,3,5-triazinan-1-yl)-4-fluoro-phenyl]-5-methyl-4H-isoxazole-5-carboxamide], the pest or weed control at 250 g/ha with AMAPA [1] was 100%; in the assay on ECHCG [2] it was 10%; in the assay on EPHHL [3], 80%; in the assay with IPOHE [4] it was 50%; in the assay on LOLPE [5] it was 60%; with SETFA [6], 90%. Moreover, the pest or weed control at 250 g/ha in the assay with AMAPA [7] amounted to 100%; with CHEAL, 100%; with DIGSA it was 100%; with ECHCG [8], 100%; in the assay on ELEIN, 100%; in the assay on EPHHL [9], 90%. Also, the pest or weed control at 250 g/ha with IPOHE [10] turned out to be 100%; in the assay with LOLPE [11], 90%; in the assay on SETFA [12], 100%.
With `CCOC(=O)C1(C)CC(c2cc(-n3c(=O)n(C)c(=S)n(C)c3=O)ccc2Cl)=NO1` (stereo not drawn) [Compound 36, Ethyl 3-[2-chloro-5-(3,5-dimethyl-2,6-dioxo-4-thioxo-1,3,5-triazinan-1-yl)phenyl]-5-methyl-4H-isoxazole-5-carboxylate], the pest or weed control at 250 g/ha in the assay on AMAPA [1] amounted to 70%; in the assay with ECHCG [2], 90%; in the assay with EPHHL [3], 70%; in the assay with IPOHE [4], 40%; in the assay with LOLPE [5], 10%; in the assay on SETFA [6] it was 90%. In addition, the pest or weed control at 250 g/ha was 100% in the assay with AMAPA [7]; 90% with CHEAL; 100% with DIGSA; 100% in the assay with ECHCG [8]; 50% in the assay on ELEIN; 90% with EPHHL [9]. Also, the pest or weed control at 250 g/ha turned out to be 70% in the assay with IPOHE [10], 50% with LOLPE [11] and 100% with SETFA [12].
On to `Cn1c(=S)n(C)c(=O)n(-c2cc(C3=NOC(C)(CO)C3)c(Cl)cc2F)c1=O` (stereo not drawn) [Compound 49, 3-[4-chloro-2-fluoro-5-[5-(hydroxymethyl)-5-methyl-4H-isoxazol-3-yl]phenyl]-1,5-dimethyl-6-thioxo-1,3,5-triazinane-2,4-dione], for which the pest or weed control at 250 g/ha was 100% in the assay on AMAPA [1]; 90% in the assay with ECHCG [2]; 100% in the assay with EPHHL [3]; 90% in the assay with IPOHE [4]; 90% in the assay with LOLPE [5]; 100% in the assay with SETFA [6]. For the same molecule, the pest or weed control at 250 g/ha in the assay on AMAPA [7] was 100%; in the assay on CHEAL it was 100%; in the assay on DIGSA, 90%; in the assay with ECHCG [8], 70%; in the assay on ELEIN, 90%; with EPHHL [9], 100%. Further, the pest or weed control at 250 g/ha in the assay on IPOHE [10] amounted to 100%; in the assay with LOLPE [11], 60%; in the assay on SETFA [12], 100%.
In the case of `Cn1c(=S)n(C)c(=O)n(-c2cc(C3=NOC(C)(C(=O)O)C3)c(Cl)cc2Cl)c1=O` (stereo not drawn) [Compound 56, 3-[2,4-dichloro-5-(3,5-dimethyl-2,6-dioxo-4-thioxo-1,3,5-triazinan-1-yl)-phenyl]-5-methyl-4H-isoxazole-5-carboxylic acid], the pest or weed control at 250 g/ha in the assay with AMAPA [1] came to 90%; with ECHCG [2] it was 0%; in the assay with EPHHL [3] it was 10%; in the assay with IPOHE [4] it was 30%; in the assay on LOLPE [5], 10%; with SETFA [6], 10%. The pest or weed control at 250 g/ha is 100% in the assay with AMAPA [7]; 90% with CHEAL; 80% with DIGSA; 90% in the assay on ECHCG [8]; 80% in the assay with ELEIN; 80% in the assay on EPHHL [9]. In addition, the pest or weed control at 250 g/ha is 90% with IPOHE [10], 30% in the assay with LOLPE [11] and 90% in the assay with SETFA [12].
In the case of `CCOC(=O)C1(C)CC(c2cc(-n3c(=O)n(C)c(=S)n(C)c3=O)c(F)cc2Cl)=NO1` (single isomer, unassigned) [Compound 47 (enantiomer B)], the pest or weed control at 250 g/ha turned out to be 100% in the assay on AMAPA [1]; 50% with ECHCG [2]; 100% in the assay on EPHHL [3]; 80% with IPOHE [4]; 40% in the assay on LOLPE [5]; 100% in the assay with SETFA [6]. In addition, the pest or weed control at 250 g/ha in the assay with AMAPA [7], in the assay on CHEAL, in the assay with DIGSA, in the assay on ECHCG [8], in the assay with ELEIN and in the assay with EPHHL [9] was 100% throughout. In addition, the pest or weed control at 250 g/ha in the assay with IPOHE [10] and with SETFA [12] was 100% throughout. Further, in the assay with LOLPE [11] (250 g/ha), the “damage to plant (100=total damage to plant; 0=no damage to plant), LOLPE” value came out at 100.
